Results as given in ChEMBL document CHEMBL1201862, “PubChem BioAssay data set” (2004).
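Results reflect a 48-hour exposure of cells in 96-well plates to compound at five concentrations. Here, GI50 denotes the concentration required for 50% inhibition of growth.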 The source made the active and inactive calls. Cut-off read from the data, not from the text of the source: active = GI50 up to about 1.1 µM and inactive = higher.

How the values were obtained:
Test in all cases: NCI anticancer screen, dose series, 48 h
TK-10 = test system: TK-10
DU-145 = test system: DU-145
A549 = test system: A549
OVCAR-8 = test system: OVCAR-8
786-0 = test system: 786-0
M19-MEL = test system: M19-MEL
DLD-1 = test system: DLD-1
IGROV-1 = test system: IGROV-1
COLO 205 = test system: COLO 205
K562 = test system: K562
SN12C = test system: SN12C
MDA-MB-435 = test system: MDA-MB-435
UACC-257 = test system: UACC-257
T47D = test system: T47D
OVCAR-5 = test system: OVCAR-5
SR = test system: SR
SNB-19 = test system: SNB-19
EKVX = test system: EKVX
HCT-116 = test system: HCT-116
MDA-MB-231 = test system: MDA-MB-231

Structure (SMILES) | GI50 (TK-10) | GI50 (DU-145) | GI50 (A549) | GI50 (OVCAR-8) | GI50 (786-0) | GI50 (M19-MEL) | GI50 (DLD-1) | GI50 (IGROV-1) | GI50 (COLO 205) | GI50 (K562) | GI50 (SN12C) | GI50 (MDA-MB-435) | GI50 (UACC-257) | GI50 (T47D) | GI50 (OVCAR-5) | GI50 (SR) | GI50 (SNB-19) | GI50 (EKVX) | GI50 (HCT-116) | GI50 (MDA-MB-231)
N#CC(NNC(=O)Cc1ccccc1)c1ccccc1O (stereo not drawn) | 24.2 µM (inactive) | 20.8 µM (inactive) | 10.3 µM (inactive) | 12.3 µM (inactive) | 8.75 µM (inactive) | 7.96 µM (inactive) | 47 µM (inactive) | 21.2 µM (inactive) | 12.1 µM (inactive) | 11.3 µM (inactive) | 23.3 µM (inactive) | 27.7 µM (inactive) | 14 µM (inactive) | 2.62 µM (inactive) | 26.9 µM (inactive) | 7.29 µM (inactive) | 21.3 µM (inactive) | 8.41 µM (inactive) | 7.26 µM (inactive) | 8.2 µM (inactive)
CC[C@@]1(O)C(=O)OCc2c1cc1n(c2=O)Cc2cc3c(OC)cccc3nc2-1 | 3.74 µM (inactive) |  |  |  | 0.211 µM (active) | 0.056 µM (active) | 0.27 µM (active) |  | 1.21 µM (inactive) | 0.171 µM (active) | < 0.1 µM (active) |  | 0.558 µM (active) | 0.0194 µM (active) | 0.417 µM (active) | 0.1 µM (active) | < 0.1 µM (active) | 2.04 µM (inactive) |  | 
